Measured values taken from US9512176B2, “Age inhibitors” (Centre National de la Recherche Scientifique, priority 2005, dated 2016).
Entries after “also recorded” stand apart in the source; their conditions may differ. Non-standard residues stand in square brackets, D forms with d. Residues, ends and D or L forms follow the SMILES beside them. Dap = NC[C@H](N)C(=O)O

Test system: ribonuclease A
Assay: Enzymatic activity of ribonuclease A after treatment with methylglyoxal and inhibitors (methylene blue RNA staining)
Format: biochemical
Conditions: ribonuclease A treated with methylglyoxal (MG) + inhibitor in equimolar quantity, 37° C.; control RNase 100, RNase + methylglyoxal 10.11%
Method: (§1) Ribonuclease A and lysozyme (10 mg/ml) are incubated in the presence of methylglyoxal (10 mM) or in the presence of methylglyoxal and one of the inhibitors according to the present invention in an equimolar quantity at 37° C. After 48 hours of incubation, the proteins are analyzed by polyacrylamide gel electrophoresis (8%-16% SDS PAGE gel).
The enzymatic activity of ribonuclease A after treatment with methylglyoxal and the various inhibitors according to the present invention is measured using the methylene blue RNA staining technique of Greiner-Stöffele et al. (Anal. Biochem. (1996) 240, 24).

Structure (SMILES) | Enzymatic activity (%)
CC(C)[C@H](NC(=O)[C@@H](N)[C@H](N)C(=O)N[C@H](C(=O)O)C(C)C)C(=O)O [example 29, (2S,3S)-DASA-1-L-Val-4-L-Val.2HCl] | 75.09%

Test system: EA.hy 926 cell line
Assay: Growth of EA.hy 926 endothelial cells with MG scavengers and/or methylglyoxal (MTT)
Format: cell-based, human
Conditions: Homo sapiens, EA.hy 926; scavenger 1 mM + methylglyoxal 600 μM, 48 hours; relative to untreated control cells; MG alone 24; mean of 3 experiments; read-out: Cells + MG scavengers + Methylglyoxal (B)
Method: The cells used for the test are from the EA.hy 926 cell line, which are endothelial cells obtained by the hybridization of human umbilical vein endothelial cells (HUVECs) with lung cancer cells (A549). The EA.hy 926 endothelial cells are incubated in Dulbecco's modified Eagle's Medium (DMEM) enriched with 10% fetal calf serum. The cells are incubated in 12-well plates. Each well initially contains 100,000 cells. Cell growth is achieved by incubating the cells in 2 ml of culture medium after adding or not adding the various potential inhibitors (1 mM) and/or methylglyoxal (600 μM) for 48 hours at 37° C. in a moist atmosphere with 5% CO2.
The number of cells is evaluated in the following way:
The cells are stained using the (4,5-dimethylthiazol-2-yl)-2,5-diphenyltetrazolium bromide (MTT) assay. MTT penetrates in the cell where it is converted into formazan. The quantity of formazan formed is proportional to the number of living cells.
The results are expressed as a relative percentage of the number of cells after treatment compared to the number of control cells without treatment [100*OD (treated cells)/OD (control cells)]. Detection is carried out by UV/visible spectrophotometry at 570 nm.
Principle: MTT (yellow) penetrates the cell and is converted into an insoluble blue compound, formazan, by cleavage of its tetrazolium rings by the mitochondrial dehydrogenase enzymes of living cells. Formazan is solubilized by isopropanol. The number of cells is proportional to the quantity of formazan formed and its absorbance.

Structure (SMILES) | viability at 1000 µM
NCCC(=O)N[C@@H](Cc1cnc[nH]1)C(=O)O [Carnosine, β-alanyl-L-histidine, reference compound] | 50%
CN(C)C(=N)N=C(N)N [Metformin, reference compound] | 45%
N[C@H](C(=O)NCC(=O)O)[C@@H](N)C(=O)NCC(=O)O [example 28, (2S,3R)-DASA-1-Gly-4-Gly.2HCl] | 54%
CC(C)[C@H](NC(=O)[C@@H](N)[C@H](N)C(=O)N[C@H](C(=O)O)C(C)C)C(=O)O [example 29, (2S,3S)-DASA-1-L-Val-4-L-Val.2HCl] | 70%

Same assay, conditions: Table 2; cells with scavenger + MG minus cells with scavenger alone

Structure (SMILES) | Difference (B) − (A)
NCCC(=O)N[C@@H](Cc1cnc[nH]1)C(=O)O [Carnosine, β-alanyl-L-histidine, reference compound] | −49
NCCCC[C@H](N)C(=O)O [L-Lys, reference compound] | −38
CN(C)C(=N)N=C(N)N [Metformin, reference compound] | −46
N[C@H](C(=O)NCC(=O)O)[C@@H](N)C(=O)NCC(=O)O [example 28, (2S,3R)-DASA-1-Gly-4-Gly.2HCl] | −7
CC(C)[C@H](NC(=O)[C@@H](N)[C@H](N)C(=O)N[C@H](C(=O)O)C(C)C)C(=O)O [example 29, (2S,3S)-DASA-1-L-Val-4-L-Val.2HCl] | −15

Same assay, conditions: compound alone, 1 mM

Structure (SMILES) | toxicity with respect to EA cells
CN(C)C(=N)N=C(N)N [Metformin, reference compound] | extremely low toxicity

Same assay, conditions: scavenger 1 mM + methylglyoxal 600 μM, 48 hours; relative to untreated control cells; MG alone 24; mean of 3 experiments

Structure (SMILES) | Cells + MG scavengers + Methylglyoxal (B)
NCCCC[C@H](N)C(=O)O [L-Lys, reference compound] | 43%

Same assay, conditions: scavenger 1 mM, no methylglyoxal, 48 hours; number of cells relative to untreated control cells; mean of 3 experiments

Structure (SMILES) | Cells + MG scavengers (A)
NCCC(=O)N[C@@H](Cc1cnc[nH]1)C(=O)O [Carnosine, β-alanyl-L-histidine, reference compound] | 99%
NCCCC[C@H](N)C(=O)O [L-Lys, reference compound] | 81%

Now from value to compound:

Cells + MG scavengers (A) | Structure (SMILES)
91% | CN(C)C(=N)N=C(N)N [Metformin, reference compound]
61% | N[C@H](C(=O)NCC(=O)O)[C@@H](N)C(=O)NCC(=O)O [example 28, (2S,3R)-DASA-1-Gly-4-Gly.2HCl]
85% | CC(C)[C@H](NC(=O)[C@@H](N)[C@H](N)C(=O)N[C@H](C(=O)O)C(C)C)C(=O)O [example 29, (2S,3S)-DASA-1-L-Val-4-L-Val.2HCl]

Same assay, conditions: scavenger + methylglyoxal

Structure (SMILES) | effect against suppression of cell growth by MG
NCCC(=O)N[C@@H](Cc1cnc[nH]1)C(=O)O [Carnosine, β-alanyl-L-histidine, reference compound] | less effective
CN(C)C(=N)N=C(N)N [Metformin, reference compound] | less effective; also recorded: weak scavenger

Same assay, conditions: values in brackets

Structure (SMILES) | difference between number of cells growing with compound and with MG and compound
CC(C)C[C@H](NC(=O)[C@@H](N)CN)C(=O)O [example 3, L-DAPA-L-Leu.2TFA] (H-[Dap]-Leu-OH) | −18
CC(C)[C@H](NC(=O)[C@@H](N)[C@H](N)C(=O)N[C@H](C(=O)O)C(C)C)C(=O)O [example 29, (2S,3S)-DASA-1-L-Val-4-L-Val.2HCl] | −15

Test system: ribonuclease A
Assay: SDS PAGE electrophoresis of ribonuclease A incubated with methylglyoxal and inhibitor
Format: biochemical
Conditions: ribonuclease A 10 mg/ml, methylglyoxal 10 mM, inhibitor equimolar, 37° C., 48 hours
Method: as §1
The AGE inhibitors according to the present invention, namely L-DAPA-L-Leu (example 1) and L-DAPA-L-Ile (example 18), or AG (10 mM) are incubated with MG and ribonuclease A for […] at 37° C.

Structure (SMILES) | protection from structural modifications (dimer form) caused by methylglyoxal
CC(C)[C@H](NC(=O)[C@@H](N)[C@H](N)C(=O)N[C@H](C(=O)O)C(C)C)C(=O)O [example 29, (2S,3S)-DASA-1-L-Val-4-L-Val.2HCl] | provides protection

Test system: lysozyme
Assay: SDS PAGE electrophoresis of lysozyme incubated with methylglyoxal and inhibitor
Format: biochemical
Conditions: lysozyme 10 mg/ml, methylglyoxal 10 mM, inhibitor equimolar, 37° C., 48 hours
Method: as §1

Structure (SMILES) | protection from structural modifications (dimer form) caused by methylglyoxal
CC(C)[C@H](NC(=O)[C@@H](N)[C@H](N)C(=O)N[C@H](C(=O)O)C(C)C)C(=O)O [example 29, (2S,3S)-DASA-1-L-Val-4-L-Val.2HCl] | provides protection
